Experiments:
[1] = Log P determination, octanol-water partition coefficient; format: physicochemical; settings: read-out: Measured Log P
Description: Lipophilicity was assessed by measuring the octanol-water partition coefficient using the method of Barthel et al^18. Briefly, [^18F]11 (˜180 μCi in 25 μL ethanol) was diluted to a final volume of 100 μL using water to give the stock solution. Aliquots of stock solution (10 μL) were added to water (490 μL) and octan-1-ol (Aldrich anhydrous grade) (500 μL). The solutions were then shaken vigorously for 10 min then centrifuged (13201 g, 20° C., 30 min) Following centrifugation portions (200 μL) of the water and octanol layers were carefully removed and placed analyzed on a Cobra II Auto-Gamma counter (Packard Instruments, Meriden, Conn., USA) and compared. The octanol-water partition coefficient was obtained by dividing the octanol containing radioactivity by the water containing radioactivity. Log P was determined to be 1.61, as indicated in footnote c of Table 1 above.

[2] = In vivo biodistribution studies (Example 5); design: species or system C3H/hej mice; settings: i.v., 2-60 min
Description: The stability of novel compound [^18F]11 and known compound [^125I]14 in plasma and liver was measured over time following administration in mice. [^18F]11 was injected intravenously into tumor-bearing mice and its tissue distribution was measured in selected tissues at 2, 15 and 60 min after injection. [^125I]14 was injected intravenously into non-tumour bearing mice and its tissue distribution was measured at selected time points from 2 to 60 minutes after injection. Furthermore, the in vivo metabolic stability of the radiotracer was determined from plasma and liver samples and, for [^18F]11, in urine samples.
The radiation-induced murine fibrosarcoma (RIF-1) tumour cells^20 were maintained in RPMI 1640 medium (Invitrogen Ltd, Paisley, UK) supplemented with 10% fetal calf serum (BioWhittaker Europe Ltd, Verviers, Belgium), 2 mM L-glutamine, 100 U/mL penicillin, 100 μg/mL streptomycin and 0.25 μg/mL fungizone (Gibco, UK) at 37° C. in a humidified incubator with 5% CO2. All animal work was done by licensed investigators in accordance with the United Kingdom's “Guidance on the Operation of Animals (Scientific Procedures) Act 1986” (HMSO, London, United Kingdom, 1990) and in full compliance with government regulations and guidelines on the welfare of animals in experimental neoplasia^21. Tumors were established in mice by subcutaneous injection of 5×10^5 cells on the back of male C3H/hej mice (Harlan, Bicester, Oxfordshire, UK). Tumour growth was monitored every two days using electronic callipers, and tumor volume estimated using the equation (π/6)×L×W×D (L=length, W=width and D=depth). Animals were selected for biodistribution studies of [^18F]11 when the tumors reached ˜100-150 mm^3; biodistribution of [^125I]14 was done in non-tumor-bearing mice.
Mice were injected intravenously via the lateral vein with 0.08-0.13 mL of radioactivity (˜0.37 MBq of [^125I]14 or 3.7 MBq of [^18F]11) dissolved in phosphate buffered saline. At selected times after injection (2-60 min) mice were sacrificed by exsanguination via cardiac puncture under general anesthesia (isofluorane inhalation). Aliquots of heparinised blood were rapidly centrifuged (2000 g for 5 minutes) to obtain plasma. The radioactivity contained in tissues was determined by gamma-counting on a Cobra II Auto-Gamma counter (Packard Instruments, Meriden, Conn., USA) and expressed as a percentage of injected dose per gram of tissue (% ID/g). A minimum of three mice was used for each time point. All animals were treatment-naïve.

[3] = test system: caspase-3 cognate target poly(ADP-ribose) polymerase (PARP); assay: Cellular activity: PARP cleavage immunoblot in cisplatin-treated RIF-1 cells; format: cell-based, murine; settings: 15 min pre-incubation, cisplatin 100 μM 48 h
Source text: The Δ-PARP immunoblot band corresponds to the endogenous 89 kDa large fragment of PARP resulting from caspase 3 cleavage. α-tubulin was used as a loading control.

SMILES | logP at 10 min [1] | Bone uptake ([2]; RIF-1 tumor-bearing mice) | uptake in untreated tumors, heart and brain ([2]; RIF-1 tumor-bearing mice) | tissue distribution and elimination ([2]; mice) | effect on induction of cleaved PARP by cisplatin induced apoptosis [3]
O=C1C(=O)N(Cc2cn(CC[18F])nn2)c2ccc(S(=O)(=O)N3CCC[C@H]3COc3ccc(F)cc3F)cc21 [[^18F]11, (S)-1-((1-(2-Fluoroethyl)-1H-[1,2,3]-triazol-4-yl)methyl)-5-(2(2,4-difluorophenoxymethyl)-pyrrolidine-1-sulfonyl)isatin] | 1.61 | low | low | distributed rapidly to tissues and was also rapidly eliminated | 
O=C1C(=O)N(Cc2cn(CCF)nn2)c2ccc(S(=O)(=O)N3CCC[C@H]3COc3ccc(F)cc3F)cc21 [Compound 11, (S)-1-((1-(2-Fluoroethyl)-1H-[1,2,3]-triazol-4-yl)methyl)-5-(2(2,4-difluorophenoxymethyl)-pyrrolidine-1-sulfonyl)isatin] |  |  |  |  | disrupted the induction of caspase-3 cognate target PARP by cisplatin induced apoptosis

Source: US8961930B2, “Isatin derivatives for use as in vivo imaging agents” (Imperial Innovations Limited, priority 2008, dated 2015)
